The source made the active and inactive calls.
Columns and labels:
[1] = system: Mus musculus; experiment: (§1) Anti-inflammatory activity in LPS-induced BALB/c mouse model of […] assessed as inhibition of LPS-induced increase in TNF-alpha expression in serum at 10 mg/kg, po preadministered with compound for 3 days followed by LPS stimulation for 6 hrs after 1 hrs compound administration on day 3 by ELISA; format: functional, organism-based; settings: time 3.0 day
[2] = system: Mus musculus; experiment: (§2) Anti-inflammatory activity in LPS-induced BALB/c mouse model of […] assessed as attenuation of inflammatory cell infiltration in lungs at 10 mg/kg, po preadministered with compound for 3 days followed by LPS stimulation for 6 hrs after 1 hrs compound administration on day 3 by H&E staining based analysis; format: functional, organism-based; settings: time 3.0 day
[3] = system: Mus musculus; experiment: as §2, with “lung alveolar hemorrhage” for “inflammatory cell infiltration in lungs”; format: functional, organism-based; settings: time 3.0 day
[4] = system: Mus musculus; experiment: (§3) In vivo inhibition of NFkappaB activation in LPS-induced BALB/c mouse model of […] assessed as inhibition of IkappaBalpha degradation at 10 mg/kg, po preadministered with compound for 3 days followed by LPS stimulation for 6 hrs after 1 hrs compound administration on day 3 by Western blot analysis; format: functional, organism-based; settings: time 3.0 day
[5] = system: Mus musculus; experiment: as §1, with “IL-6” for “TNF-alpha”; format: functional, organism-based; settings: time 3.0 day
[6] = system: Mus musculus; experiment: as §1, with “NO production” for “TNF-alpha expression”, “BALF” for “serum”, “Griess reagent based method” for “ELISA”; format: functional, organism-based; settings: time 3.0 day
[7] = system: RAW264.7; experiment: Cytotoxicity against mouse RAW264.7 cells assessed as reduction in cell viability at 30 uM incubated for 24 hrs by MTT assay relative to control; format: toxicity, cell-based; settings: raw264.7, 24 h
[8] = system: Mus musculus; experiment: Anti-inflammatory activity in LPS-induced BALB/c mouse model of […] assessed as inhibition of LPS-induced increase in lung W/D ratio at 10 mg/kg, po preadministered with compound for 3 days followed by LPS stimulation for 6 hrs after 1 hrs compound administration on day 3; format: functional, organism-based; settings: time 3.0 day
[9] = system: Mus musculus; experiment: as §1, with “BALF” for “serum”; format: functional, organism-based; settings: time 3.0 day
[10] = system: Mus musculus; experiment: as §3, with “NFkappaB” for “IkappaBalpha”; format: functional, organism-based; settings: time 3.0 day
[11] = Cytotoxicity against mouse RAW264.7 cells assessed as inhibition of cell growth incubated for 24 hrs by MTT assay; format: toxicity, cell-based
[12] = system: Mus musculus; experiment: as §1, with “NO production” for “TNF-alpha expression”, “Griess reagent based method” for “ELISA”; format: functional, organism-based; settings: time 3.0 day
[13] = system: Mus musculus; experiment: as §1, with “IL-6” for “TNF-alpha”, “BALF” for “serum”; format: functional, organism-based; settings: time 3.0 day

CC(=O)O[C@H]1C[C@@]2(C)[C@@H](C[C@@H](O)[C@H]3[C@@]4(C)CC[C@@H](O)[C@@H](C)[C@@H]4CC[C@@]32C)/C1=C(\CCC=C(C)C)C(=O)O [FUSIDIC ACID]
101.08%: Activity [7]
active: Activity [1] | Activity [2] | Activity [3] | inhibition [4] | Activity [5] | Activity [6] | Activity [8] | Activity [9] | inhibition [10] | Activity [12] | Activity [13]
61.3 µM: IC50 at 24 h [11]
